By IC50 is commonly meant the concentration that inhibits the measured activity by half. Read a high IC50 as lower potency. What is called Kd is the constant that tells how readily two partners part at equilibrium.

One compound from paper PMC9854573, “Baicalein Attenuates Brain Iron Accumulation through Protecting Aconitase 1 from Oxidative Stress in Rotenone-Induced Parkinson’s Disease in Rats” (Antioxidants, 2022) can be followed below.

Test [1] addresses T1, ACO1 (aconitase activity of rat heart homogenate supernatant).
T1 construct: crude rat heart homogenate, 12,000 x g supernatant
Kind of test: aconitase activity, absorbance of aconitate at […] nm. It is filed as biochemical. The note with it: 10 min preincubation, citrate 4 μM, 100 μg protein, Tris-HCl 20 mM pH 7.4, room temperature, no oxidant.

Test [2] deals with T2, ACO1 (recombinant human ACO1 protein) (Homo sapiens, UniProt P21399).
T2 construct: immobilised on CM5 chip at pH 4.0
T2 sequence (P21399 1-889): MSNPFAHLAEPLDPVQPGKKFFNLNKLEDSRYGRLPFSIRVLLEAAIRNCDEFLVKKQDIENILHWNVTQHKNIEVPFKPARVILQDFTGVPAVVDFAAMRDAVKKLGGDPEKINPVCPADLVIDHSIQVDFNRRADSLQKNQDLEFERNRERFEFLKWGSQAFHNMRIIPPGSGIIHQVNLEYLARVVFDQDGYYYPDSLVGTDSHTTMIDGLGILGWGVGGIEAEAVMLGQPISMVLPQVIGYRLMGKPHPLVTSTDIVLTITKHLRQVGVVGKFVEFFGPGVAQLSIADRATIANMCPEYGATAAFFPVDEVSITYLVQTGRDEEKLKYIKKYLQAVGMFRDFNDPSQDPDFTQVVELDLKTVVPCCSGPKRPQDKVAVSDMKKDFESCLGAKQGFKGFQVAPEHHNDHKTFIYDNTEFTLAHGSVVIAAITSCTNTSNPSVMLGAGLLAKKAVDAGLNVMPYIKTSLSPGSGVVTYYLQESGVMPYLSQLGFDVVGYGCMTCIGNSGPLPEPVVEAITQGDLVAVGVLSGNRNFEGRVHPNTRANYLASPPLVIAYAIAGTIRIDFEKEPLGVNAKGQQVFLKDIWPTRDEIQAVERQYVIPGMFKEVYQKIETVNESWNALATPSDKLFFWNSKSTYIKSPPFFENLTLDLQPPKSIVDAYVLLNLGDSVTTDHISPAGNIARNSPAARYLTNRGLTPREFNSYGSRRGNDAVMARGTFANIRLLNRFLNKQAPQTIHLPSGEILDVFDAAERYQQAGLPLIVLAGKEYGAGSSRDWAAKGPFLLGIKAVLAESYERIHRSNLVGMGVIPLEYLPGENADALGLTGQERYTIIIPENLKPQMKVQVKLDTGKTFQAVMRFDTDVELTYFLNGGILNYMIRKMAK
Kind of test: surface plasmon resonance (Biacore X100, CM5 chip). Format: binding.

Compound `O=c1cc(-c2ccccc2)oc2cc(O)c(O)c(O)c12` [baicalein, 5,6,7-trihydroxyflavone] had an IC50 in test [1] of 166 µM. In test [2], the dissociation constant Kd is 198 µM.
